What was measured:
Assay type in all cases: binding
[1] = biological target: T1, JAK1 (Homo sapiens, UniProt P23458); assay: Probe-based (AX9989) kinase profiling in Jurkat lysate: JAK1; details: screening concentration 1.0 μM; read-out: Kinase inhibition % at indicated screening concentration: JAK1
T1 construct: screened for activity against several kinases in Jurkat cells; endogenous in cells; host or cells: Jurkat cell lysate
Summary of the method: (§1)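 Jurkat lysate, HEPES pH 7.5 buffer + 20 mM MnCl2; cpd 15 min RT; AX9989 ATP probe 5 μM final, RT. Trypsin digest, streptavidin capture, LC/MS; % inhibition vs vehicle from labeled-peptide signal.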

[2] = biological target: T2, AurA (Homo sapiens, UniProt O14965); assay: Probe-based (AX9989) kinase profiling in Jurkat lysate: AurA; details: screening concentration 1.0 μM; read-out: Kinase inhibition % at indicated screening concentration: AurA
T2 construct: screened for activity against several kinases in Jurkat cells; endogenous in cells; host or cells: Jurkat cell lysate
T2 sequence (O14965 1-403): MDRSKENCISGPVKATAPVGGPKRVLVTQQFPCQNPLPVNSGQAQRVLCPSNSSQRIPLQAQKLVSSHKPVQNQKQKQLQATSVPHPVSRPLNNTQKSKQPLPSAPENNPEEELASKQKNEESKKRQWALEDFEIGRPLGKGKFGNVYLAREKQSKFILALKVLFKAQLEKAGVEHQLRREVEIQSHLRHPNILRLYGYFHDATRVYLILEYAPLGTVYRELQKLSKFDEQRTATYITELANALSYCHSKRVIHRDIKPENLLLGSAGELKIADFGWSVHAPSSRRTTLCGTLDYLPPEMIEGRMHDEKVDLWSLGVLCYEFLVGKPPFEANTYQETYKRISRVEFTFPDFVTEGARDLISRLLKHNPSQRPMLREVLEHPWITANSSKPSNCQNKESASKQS
Summary of the method: as §1

[3] = biological target: T3, ERK5 (Homo sapiens, UniProt Q13164); assay: Probe-based (AX9989 acyl phosphate ATP probe) kinase profiling in Jurkat lysate: ERK5; details: for IC50: calculated from percent inhibition of AX9989 labeling and the screening concentration, Jurkat lysate; for inhibition at 1 µM: screening concentration 1.0 μM, read-out: Kinase inhibition % at indicated screening concentration: ERK5
T3 construct: screened for activity against several kinases in Jurkat cells; endogenous in cells; host or cells: Jurkat cell lysate
T3 sequence (Q13164 whole entry): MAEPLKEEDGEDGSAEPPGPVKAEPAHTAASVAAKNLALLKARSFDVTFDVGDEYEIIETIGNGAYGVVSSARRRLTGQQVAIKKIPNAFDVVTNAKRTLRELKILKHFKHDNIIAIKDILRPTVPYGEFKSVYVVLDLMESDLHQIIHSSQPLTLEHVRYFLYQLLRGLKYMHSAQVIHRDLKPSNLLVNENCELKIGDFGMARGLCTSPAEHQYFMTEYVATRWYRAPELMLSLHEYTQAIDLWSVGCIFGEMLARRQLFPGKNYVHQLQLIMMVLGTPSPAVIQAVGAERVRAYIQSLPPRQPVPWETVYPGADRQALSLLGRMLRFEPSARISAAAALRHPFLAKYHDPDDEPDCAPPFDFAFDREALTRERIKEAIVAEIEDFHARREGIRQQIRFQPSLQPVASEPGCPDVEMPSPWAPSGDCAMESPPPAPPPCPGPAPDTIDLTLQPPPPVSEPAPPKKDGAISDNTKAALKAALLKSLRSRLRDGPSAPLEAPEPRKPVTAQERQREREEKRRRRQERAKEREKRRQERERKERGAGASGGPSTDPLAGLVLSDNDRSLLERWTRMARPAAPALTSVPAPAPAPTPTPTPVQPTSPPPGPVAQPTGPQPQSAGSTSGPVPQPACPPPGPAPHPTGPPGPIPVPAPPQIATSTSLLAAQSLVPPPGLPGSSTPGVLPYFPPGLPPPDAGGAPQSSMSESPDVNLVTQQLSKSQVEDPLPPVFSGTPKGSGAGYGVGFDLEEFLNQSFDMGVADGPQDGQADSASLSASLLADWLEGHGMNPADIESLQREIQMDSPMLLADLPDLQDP
Summary of the method: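 Gel-filtered Jurkat lysate (5 mg/ml, 20 mM MnCl2) preincubated 15 min at room temperature with compound, then labelled with 5 μM AX9989 acyl phosphate ATP probe. Probe-labelled ERK5 active-site peptides quantified by LC/MS after trypsin digestion and streptavidin capture; IC50 calculated from percent inhibition at the screening concentration.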

[4] = biological target: T4, ACK (Homo sapiens, UniProt Q07912); assay: Probe-based (AX9989) kinase profiling in Jurkat lysate: ACK; details: screening concentration 1.0 μM; read-out: Kinase inhibition % at indicated screening concentration: ACK
T4 construct: screened for activity against several kinases in Jurkat cells; endogenous in cells; host or cells: Jurkat cell lysate
T4 sequence (Q07912 whole entry): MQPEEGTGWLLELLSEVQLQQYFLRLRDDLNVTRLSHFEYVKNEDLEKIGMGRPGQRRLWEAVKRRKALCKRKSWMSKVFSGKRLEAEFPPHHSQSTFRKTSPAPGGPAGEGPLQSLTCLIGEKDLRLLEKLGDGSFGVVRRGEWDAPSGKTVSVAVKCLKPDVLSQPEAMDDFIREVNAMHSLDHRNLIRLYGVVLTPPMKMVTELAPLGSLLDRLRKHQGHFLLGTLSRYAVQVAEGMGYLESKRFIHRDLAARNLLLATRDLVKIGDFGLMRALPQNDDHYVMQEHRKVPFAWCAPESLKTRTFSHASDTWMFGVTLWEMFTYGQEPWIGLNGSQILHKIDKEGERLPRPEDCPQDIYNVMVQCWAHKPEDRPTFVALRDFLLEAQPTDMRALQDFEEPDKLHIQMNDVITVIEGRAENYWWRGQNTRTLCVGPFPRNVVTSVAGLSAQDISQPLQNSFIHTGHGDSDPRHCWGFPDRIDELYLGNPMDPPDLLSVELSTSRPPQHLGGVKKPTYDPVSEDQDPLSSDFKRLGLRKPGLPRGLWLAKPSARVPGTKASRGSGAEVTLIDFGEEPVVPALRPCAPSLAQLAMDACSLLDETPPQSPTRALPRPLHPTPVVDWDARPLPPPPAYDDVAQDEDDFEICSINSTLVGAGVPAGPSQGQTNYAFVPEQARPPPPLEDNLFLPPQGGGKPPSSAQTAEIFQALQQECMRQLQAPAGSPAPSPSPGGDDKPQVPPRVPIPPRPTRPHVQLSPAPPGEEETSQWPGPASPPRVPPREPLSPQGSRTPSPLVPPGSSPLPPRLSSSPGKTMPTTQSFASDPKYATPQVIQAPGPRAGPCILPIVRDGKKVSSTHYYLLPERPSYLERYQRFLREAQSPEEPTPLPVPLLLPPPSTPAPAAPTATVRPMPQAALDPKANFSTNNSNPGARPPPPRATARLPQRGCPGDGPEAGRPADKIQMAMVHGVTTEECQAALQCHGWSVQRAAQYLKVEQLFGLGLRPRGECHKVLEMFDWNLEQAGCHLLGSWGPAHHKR
Summary of the method: as §1

[5] = system: AMPKa1 or AMPKa2; assay: Probe-based (AX9989) kinase profiling in Jurkat lysate: AMPKa1 or AMPKa2; details: screening concentration 1.0 μM
Summary of the method: as §1

[6] = biological target: T5, TAO2 (Homo sapiens, UniProt Q9UL54); assay: Probe-based (AX9989) kinase profiling in Jurkat lysate: TAO2; details: screening concentration 1.0 μM; read-out: Kinase inhibition % at indicated screening concentration: TAO2
T5 construct: screened for activity against several kinases in Jurkat cells; endogenous in cells; host or cells: Jurkat cell lysate
T5 sequence (Q9UL54 1-1235): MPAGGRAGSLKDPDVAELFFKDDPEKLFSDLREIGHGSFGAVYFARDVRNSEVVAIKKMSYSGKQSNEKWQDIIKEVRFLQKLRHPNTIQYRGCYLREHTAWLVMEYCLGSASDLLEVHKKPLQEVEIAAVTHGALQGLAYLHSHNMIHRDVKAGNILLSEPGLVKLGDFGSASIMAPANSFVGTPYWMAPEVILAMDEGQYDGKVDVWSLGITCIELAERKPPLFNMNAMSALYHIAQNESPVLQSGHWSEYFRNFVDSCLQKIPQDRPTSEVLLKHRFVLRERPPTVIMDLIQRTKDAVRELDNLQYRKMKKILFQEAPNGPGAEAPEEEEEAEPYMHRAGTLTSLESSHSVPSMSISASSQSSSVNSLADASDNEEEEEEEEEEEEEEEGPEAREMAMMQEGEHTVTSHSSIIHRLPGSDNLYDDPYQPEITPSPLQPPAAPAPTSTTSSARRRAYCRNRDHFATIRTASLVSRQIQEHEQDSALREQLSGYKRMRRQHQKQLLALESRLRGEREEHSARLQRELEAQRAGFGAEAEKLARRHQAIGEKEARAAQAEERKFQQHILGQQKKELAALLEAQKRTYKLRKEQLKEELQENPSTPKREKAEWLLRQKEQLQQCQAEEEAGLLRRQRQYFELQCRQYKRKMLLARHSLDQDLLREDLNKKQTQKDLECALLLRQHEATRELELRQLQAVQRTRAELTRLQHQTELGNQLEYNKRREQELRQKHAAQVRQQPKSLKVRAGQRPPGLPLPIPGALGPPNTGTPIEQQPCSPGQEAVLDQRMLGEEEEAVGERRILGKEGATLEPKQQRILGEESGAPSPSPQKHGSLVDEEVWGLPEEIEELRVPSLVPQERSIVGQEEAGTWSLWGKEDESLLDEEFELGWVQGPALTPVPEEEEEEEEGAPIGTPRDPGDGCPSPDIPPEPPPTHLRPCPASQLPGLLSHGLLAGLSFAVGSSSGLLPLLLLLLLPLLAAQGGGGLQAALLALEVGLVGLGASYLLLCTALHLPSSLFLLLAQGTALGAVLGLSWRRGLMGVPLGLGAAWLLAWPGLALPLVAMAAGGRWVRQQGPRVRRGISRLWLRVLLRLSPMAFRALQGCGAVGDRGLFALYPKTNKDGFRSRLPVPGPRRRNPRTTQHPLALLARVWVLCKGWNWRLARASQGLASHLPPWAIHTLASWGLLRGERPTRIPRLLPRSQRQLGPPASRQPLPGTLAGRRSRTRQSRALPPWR
Summary of the method: as §1

[7] = system: ABL or ARG; assay: Probe-based (AX9989) kinase profiling in Jurkat lysate: ABL or ARG; details: screening concentration 1.0 μM
Summary of the method: as §1

[8] = system: AurB or AurC; assay: Probe-based (AX9989) kinase profiling in Jurkat lysate: AurB or AurC; details: screening concentration 1.0 μM
Summary of the method: as §1

T1 sequence (P23458 whole entry): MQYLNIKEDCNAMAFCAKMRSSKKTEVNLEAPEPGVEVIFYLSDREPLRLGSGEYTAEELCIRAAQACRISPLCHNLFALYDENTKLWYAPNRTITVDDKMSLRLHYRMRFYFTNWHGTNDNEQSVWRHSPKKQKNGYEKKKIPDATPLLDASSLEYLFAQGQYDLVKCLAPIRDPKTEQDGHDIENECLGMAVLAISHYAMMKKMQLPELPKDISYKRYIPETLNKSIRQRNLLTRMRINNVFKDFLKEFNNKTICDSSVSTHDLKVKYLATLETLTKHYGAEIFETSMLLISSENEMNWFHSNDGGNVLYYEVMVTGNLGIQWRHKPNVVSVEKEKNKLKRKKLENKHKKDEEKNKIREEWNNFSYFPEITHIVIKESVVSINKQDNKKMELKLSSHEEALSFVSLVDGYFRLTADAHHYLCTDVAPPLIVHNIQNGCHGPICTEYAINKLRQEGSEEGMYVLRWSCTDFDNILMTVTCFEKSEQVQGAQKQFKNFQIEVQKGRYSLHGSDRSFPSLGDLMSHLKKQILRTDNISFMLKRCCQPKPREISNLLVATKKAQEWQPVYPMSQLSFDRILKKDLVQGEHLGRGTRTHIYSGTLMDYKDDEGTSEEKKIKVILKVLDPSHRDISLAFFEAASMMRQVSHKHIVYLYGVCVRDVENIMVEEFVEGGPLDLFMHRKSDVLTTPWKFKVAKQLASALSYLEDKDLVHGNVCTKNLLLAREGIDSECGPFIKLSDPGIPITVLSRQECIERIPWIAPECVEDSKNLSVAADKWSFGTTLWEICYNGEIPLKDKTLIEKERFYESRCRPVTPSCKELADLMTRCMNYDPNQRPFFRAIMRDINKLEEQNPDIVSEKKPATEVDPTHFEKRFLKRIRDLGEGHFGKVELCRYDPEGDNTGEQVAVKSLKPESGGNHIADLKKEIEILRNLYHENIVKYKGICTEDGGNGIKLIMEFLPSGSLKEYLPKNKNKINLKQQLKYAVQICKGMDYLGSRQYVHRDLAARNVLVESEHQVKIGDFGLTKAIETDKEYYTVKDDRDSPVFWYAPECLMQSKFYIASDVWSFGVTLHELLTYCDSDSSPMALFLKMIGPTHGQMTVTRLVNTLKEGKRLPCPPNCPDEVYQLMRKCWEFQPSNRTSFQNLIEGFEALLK

inhibition at 1 µM [1] [%]	inhibition at 1 µM [2] [%]	IC50 [3] [µM]	inhibition at 1 µM [3] [%]	inhibition at 1 µM [4] [%]	Kinase inhibition % at indicated screening concentration: AMPKa1 or AMPKa2 [5]	inhibition at 1 µM [6] [%]	Kinase inhibition % at indicated screening concentration: ABL or ARG [7]	Kinase inhibition % at indicated screening concentration: AurB or AurC [8]	SMILES
≤ 35	≤ 35	> 0.5	50 to 75	≤ 35	E (E is ≦35%)	≤ 35	E (E is ≦35%)	E (E is ≦35%)	CCOc1cc(C(=O)O)ccc1Nc1cc2c(cn1)N(C)C(=O)c1ccccc1N2C [Compound 18, 4-(5,11-Dimethyl-10-oxo-10,11-dihydro-5H-benzo[e]pyrido[3,4-b][1,4]diazepin-3-ylamino)-3-ethoxybenzoic acid]
≤ 35	≤ 35	0.101 to 0.5	75 to 90	≤ 35	E (E is ≦35%)	≤ 35	E (E is ≦35%)	E (E is ≦35%)	Cc1nn(C)cc1Nc1cc2c(cn1)N(C)C(=O)c1ccccc1N2C [Compound 22]
≤ 35	≤ 35	> 0.5	50 to 75	≤ 35	E (E is ≦35%)	≤ 35	E (E is ≦35%)	E (E is ≦35%)	COC(=O)[C@H]1CC[C@H](Nc2cc3c(cn2)N(C)C(=O)c2ccccc2N3C)CC1 [Compound 81]
≤ 35	≤ 35	0.101 to 0.5	50 to 75	≤ 35	E (E is ≦35%)	≤ 35	E (E is ≦35%)	E (E is ≦35%)	Cc1cc(O)ccc1Nc1cc2c(cn1)N(C)C(=O)c1ccccc1N2C [Compound 38]
≤ 35	≤ 35	> 0.5	50 to 75	≤ 35	E (E is ≦35%)	≤ 35	E (E is ≦35%)	E (E is ≦35%)	CN1C(=O)c2ccccc2N(C)c2cc(Nc3ccccc3Cl)ncc21 [Compound 86]

From patent publication US20170008888A1 (KYORIN PHARMACEUTICAL CO., LTD., priority 2014, published 2017)
